The text below walks through data of ChEMBL document CHEMBL5729054, “Five membered-aminoheterocycle and 5,6-or 6,6-membered bicyclic aminoheterocyclic inhibitors of rock for the treatment of heart failure” (2022).

In the assay the target is Rho-associated protein kinase 2 (Homo sapiens, UniProt O75116). Kind of assay: In Vitro Assay: The effectiveness of compounds of the present invention as ROCK inhibitors can be determined in a 30 μL assay containing 20 mM HEPES, pH 7.5, 20 mM MgCl2, 0.015% Brij-35, 4 mM DTT, 5 μM ATP and 1.5 μM peptide substrate (FITC-AHA-AKRRRLSSLRA-OH) (SEQ ID No. 1). Compounds were dissolved in DMSO so that the final concentration of DMSO was <2%, and the reaction was initiated with Rho kinase variants. After incubation, the reaction was terminated by the addition of EDTA and the phosphorylated and non-phosphorylated peptides separated using a LABCHIP® 3000 Reader (Caliper Life Sciences). […] Compounds were tested in dose-response format, and the inhibition of kinase activity was calculated at each concentration of compound. The inhibition data were fit using a curve-fitting program to determine the IC50; i.e., the concentration of compound required to inhibit 50% of kinase activity.
Rho-associated protein kinase 2, sequence (O75116 whole entry, looked up, change not shown): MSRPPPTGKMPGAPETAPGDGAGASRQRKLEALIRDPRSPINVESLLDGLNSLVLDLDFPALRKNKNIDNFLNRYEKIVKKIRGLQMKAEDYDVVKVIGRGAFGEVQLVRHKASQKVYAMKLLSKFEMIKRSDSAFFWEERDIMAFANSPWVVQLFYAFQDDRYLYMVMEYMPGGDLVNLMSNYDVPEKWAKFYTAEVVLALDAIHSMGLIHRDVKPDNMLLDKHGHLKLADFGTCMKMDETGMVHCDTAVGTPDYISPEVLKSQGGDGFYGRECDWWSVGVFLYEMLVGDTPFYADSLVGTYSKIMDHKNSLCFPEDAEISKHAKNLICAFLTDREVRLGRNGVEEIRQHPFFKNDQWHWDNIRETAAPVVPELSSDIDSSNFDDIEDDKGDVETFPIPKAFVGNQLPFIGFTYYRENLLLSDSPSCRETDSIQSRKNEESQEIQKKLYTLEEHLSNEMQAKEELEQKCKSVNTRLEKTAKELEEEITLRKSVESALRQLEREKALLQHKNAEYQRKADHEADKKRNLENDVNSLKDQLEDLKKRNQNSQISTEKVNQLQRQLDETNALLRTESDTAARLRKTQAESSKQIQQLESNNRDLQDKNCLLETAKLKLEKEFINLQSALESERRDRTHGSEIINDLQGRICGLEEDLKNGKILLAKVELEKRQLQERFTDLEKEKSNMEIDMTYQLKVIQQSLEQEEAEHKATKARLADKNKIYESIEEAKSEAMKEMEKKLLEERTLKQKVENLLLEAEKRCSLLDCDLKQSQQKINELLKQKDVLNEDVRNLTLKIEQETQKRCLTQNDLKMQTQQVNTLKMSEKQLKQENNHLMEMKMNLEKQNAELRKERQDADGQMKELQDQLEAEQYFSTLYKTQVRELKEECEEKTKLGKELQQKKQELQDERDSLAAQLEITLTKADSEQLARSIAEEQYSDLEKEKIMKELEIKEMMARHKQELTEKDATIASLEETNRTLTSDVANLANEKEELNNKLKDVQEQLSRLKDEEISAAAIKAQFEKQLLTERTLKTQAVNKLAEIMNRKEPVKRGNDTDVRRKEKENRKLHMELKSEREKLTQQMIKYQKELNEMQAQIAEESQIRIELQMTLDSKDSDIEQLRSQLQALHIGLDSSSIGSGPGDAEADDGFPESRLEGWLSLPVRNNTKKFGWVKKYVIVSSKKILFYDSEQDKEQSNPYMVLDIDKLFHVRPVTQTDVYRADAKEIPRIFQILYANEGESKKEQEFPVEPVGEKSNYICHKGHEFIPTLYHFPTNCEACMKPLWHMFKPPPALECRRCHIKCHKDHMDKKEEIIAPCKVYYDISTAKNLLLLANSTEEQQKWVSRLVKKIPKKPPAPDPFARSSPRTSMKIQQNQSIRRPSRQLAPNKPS

For the molecule `N#Cc1cnc(NC2CC3(C2)CC(Oc2ncccc2C(N)=O)C3)nc1` (stereo unspecified), the half-maximal inhibitory concentration (IC50) (as a rule, the concentration that gives 50% inhibition) is 1510 nM.
